{"source": "patent US5144017A", "about": "“Compounds that bind to digitalis receptor” (University of Manitoba, priority 1988, dated 1992)", "key": {"[1]": {"settings": "prior art; cited from earlier work"}, "[2]": {"settings": "prior art; cited from earlier work", "remark": "listed apart in the source"}, "isolated heart muscle": {"test_system": "isolated heart muscle", "assay": "cardiostimulation in isolated heart muscle", "from_the_text": "Differences in toxicity, i.e. the tolerance to increasingly-greater dosage levels before the onset of arrhythmia, exist among the various steroid glycosides."}, "[3]": {"target": "cardiac glycoside (CG) binding site (digitalis receptor) of heart muscle", "assay": "3H-ouabain radioligand binding assay (RBA)", "design": "species or system dog", "settings": "for IC50: cardiac receptor of heart muscle, membranes from dog myocardium, read-out: binding / displacement potency in the 3H-ouabain RBA (IC50); for receptor potency relative to the aglycone: glucoside versus aglycone", "method": "An extensive study has been conducted by the inventors with respect to a wide series of steroids of the pregnane and androstane type. The potencies of these steroids were determined in a ^3 H-ouabain radioligand binding assay (RBA). Past experience has indicated to the inventors that the potency of the steroids to displace the labelled cardiac glycoside (i.e. ouabain) in the assay parallel their biological activity, that is their cardiac glycoside-like activity in the ability to inhibit Na/K-ATPase and elicit characteristic cellular response.\nBinding studies were carried out in a ^3 H-ouabain radioligand binding assay (RBA) generally as described by Chow et al in Br. J. Pharmac. (1979), 67, 345 to 352. The results obtained are set forth in the Examples below:\nA number of progesterone derivatives, having a 17α-acetoxy group and various functions at C-3 and C-6, interact at the cardiac glycoside (CG) binding site, as measured by the RBA with membranes from dog myocardium. Experimental values are given in the Table of FIG. 4 and structures in FIG. 3. The inventors have carried out structure-activity studies concerned with modification of the A and B rings as they influence potency in the RBA. As may be seen from the data, some progesterone derivatives with 5α- or 5β-stereochemistry show receptor competing activity. Among the congeners, highest potency is associated with the presence of C-4 or C-4,6-unsaturation and a C-6 substituent (CH3, Cl, Br). The C-3 function may be carbonyl, 3β-hydroxy, 3β-acetoxy or β-D-glucoside when associated with C-4 or C-4,6 unsaturation. In compounds with other substituents that promote activity, C-6α-substitution with --CH3, --Cl or --Br strongly enhance activity, --F, --OCH3, carbonyl or the unsubstituted compound promotes weak binding, and --OC2 H5, --OAc, --OCOOCH3 or --OH eliminates binding activity. Receptor interaction with the double bond at C-4, but not C-5, appears to be particularly important for binding."}, "[4]": {"test_system": "canine ventricular trabeculae muscle", "assay": "contractile (inotropic) response of canine ventricular trabeculae muscle"}, "[5]": {"assay": "intrarenal infusion: urine volume, sodium and potassium excretion", "assay_type": "in vivo", "from_the_text": "The effects of an intrarenal infusion of ouabain and 14β-hydroxyprogesterone glucoside were compared. […] This marked natriuresis and absence of kaliuresis by the cardiotonic pregnane has practical clinical implications. […]"}, "Na/K-ATPase": {"test_system": "Na/K-ATPase", "settings": "prior art; cited from earlier work"}, "[6]": {"settings": "prior art; cited from earlier work", "remark": "listed apart in the source"}, "[7]": {"settings": "listed as β-D-glucoside of 14β-hydroxyprogesterone"}}, "data": [{"compound": "C[C@@H]1O[C@@H](O[C@H]2CC[C@@]3(C)[C@H](CC[C@@H]4[C@@H]3CC[C@]3(C)[C@@H]([C@@H](C)O)CC[C@]43N)C2)[C@H](O)[C@H](O)[C@H]1O", "note": "[3β-rhamnosyloxy-14β-amino-5β-pregnane-20β-ol]", "values": [{"measurement": "effect on cardiac contractility compared with digoxin", "setting": "[1]", "value": "superior, in terms of tolerance to higher dosage"}, {"measurement": "potency compared with the cardiac glycosides", "setting": "[2]", "value": "as potent as the cardiac glycosides"}]}, {"compound": "CC(=O)[C@H]1CC[C@]2(O)[C@@H]3CC[C@@H]4CC(=O)CC[C@]4(C)[C@H]3CC[C@]12C", "note": "[compound 3]", "values": [{"measurement": "cardiostimulation", "setting": "isolated heart muscle", "value": "cardiostimulant"}, {"measurement": "IC50", "setting": "[3]", "value": 60, "unit": "µM"}, {"measurement": "binding activity in the RBA, in words", "setting": "[3]; qualitative statement", "value": "weaker than 14β-hydroxyprogesterone"}]}, {"compound": "CC(=O)[C@H]1CC[C@]2(O)[C@@H]3CCC4=CC(=O)CC[C@]4(C)[C@H]3CC[C@]12C", "note": "[compound 6, 14β-hydroxyprogesterone]", "values": [{"measurement": "cardiostimulation", "setting": "isolated heart muscle", "value": "elicits cardiostimulation"}, {"measurement": "IC50", "setting": "[3]", "value": 10, "unit": "µM"}]}, {"compound": "CC(=O)[C@H]1CC[C@]2(O)[C@@H]3CCC4=C[C@@H](O[C@@H]5O[C@H](CO)[C@@H](O)[C@H](O)[C@H]5O)CC[C@]4(C)[C@H]3CC[C@]12C", "note": "[compound 8]", "values": [{"measurement": "IC50", "setting": "[3]", "value": 1.8, "unit": "µM"}, {"measurement": "receptor potency relative to the aglycone", "setting": "[3]; listed as 14β-OHP-glu", "value": "about 10 times"}, {"measurement": "receptor potency relative to the aglycone", "setting": "[3]; [7]", "value": "approximately ten"}, {"measurement": "inotropic response", "setting": "[4]; dose dependent", "value": "positive inotropic response"}, {"measurement": "after contractions on rapid electrical stimulation (digitalis-like toxic response)", "setting": "[4]; during peak inotropic response and subsequent depression", "value": "possible to elicit spontaneous after contraction(s)"}, {"measurement": "contractile response at high concentrations", "setting": "[4]; high concentrations", "value": "biphasic contractile response, an initial increase followed by a decrease"}, {"measurement": "urine volume", "setting": "[5]", "value": "increased urine volume"}, {"measurement": "potassium excretion", "setting": "[5]; listed as 14β-OHP-glu", "value": "no influence on potassium excretion"}, {"measurement": "sodium excretion", "setting": "[5]; listed as 14β-OHP-glu", "value": "increased sodium excretion significantly"}, {"measurement": "potassium excretion", "setting": "[5]; [7]", "value": "little effect on potassium excretion"}, {"measurement": "sodium excretion", "setting": "[5]; [7]", "value": "increased sodium excretion"}]}, {"compound": "CC(=O)O[C@]1(C(C)=O)CC[C@H]2[C@@H]3C=C(Cl)C4=CC(=O)CC[C@]4(C)[C@H]3CC[C@@]21C", "note": "[compound 20, 17α-acetoxy-6-chloropregna-4,6-diene-3,20-dione, reference compound]", "values": [{"measurement": "IC50", "setting": "[3]", "value": 0.5, "unit": "µM"}, {"measurement": "potency in the RBA relative to ouabain", "setting": "[3]; fraction of the potency of ouabain", "value": "1/20"}, {"measurement": "affinity / potency at Na/K-ATPase", "setting": "Na/K-ATPase", "value": "high affinity"}, {"measurement": "effect on cardiac contractility", "setting": "[6]", "value": "cardiodepression or decreased contractility"}]}]}
